# Reference: patent US11078216B2, “Bisaryl amides as NRF2 activators” (GLAXOSMITHKLINE INTELLECTUAL PROPERTY DEVELOPMENT LIMITED, priority 2016, dated 2021)
# Where a name gives a salt, the structure may show the parent alone. Read-outs that look alike come from different tables or passages of the source.
# Tested on: NRF2 (NQO1 activity as marker for NRF2 activation), BEAS-2B cells
# Test: BEAS-2B NQO1 MTT Assay
# Assay type: cell-based
# Details: EC50 of NQO1 specific activity induction, 48 hours incubation, read-out: EC50
# Outline: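 BEAS-2B cells were exposed to compound for 48 h at 37° C, 5% CO2, then lysed. NQO1 activity was measured kinetically by MTT reduction at 570 nm over 30 minutes; EC50 came from 3-parameter fit of Delta OD/min versus log concentration.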
Compound,EC50 (Homo sapiens) [µM],EC50 [µM]
"CCn1cc(CO[C@H](c2ccc(C)c(CN3C[C@@H](C)Cc4ccccc4S3(=O)=O)c2)C(C)(C)C(=O)Nc2cccnc2)nn1 [Example 49, (R)-3-((1-Ethyl-1H-1,2,3-triazol-4-yl)methoxy)-2,2-dimethyl-3-(4-methyl-3-(((S)-4-methyl-1,1-dioxido-4,5-dihydrobenzo[f][1,2]thiazepin-2(3H)-yl)methyl)phenyl)-N-(pyridin-3-yl)propanamide, Formic acid salt]",0.1 to 1,
"CCCn1cc(CO[C@H](c2ccc(C)c(CN3C[C@@H](C)Cc4ncccc4S3(=O)=O)c2)C(C)(C)C(=O)Nc2cccnc2)nn1 [Example 50, (R)-2,2-Dimethyl-3-(4-methyl-3-(((S)-4-methyl-1,1-dioxido-4,5-dihydropyrido[2,3-f][1,2]thiazepin-2(3H)-yl)methyl)phenyl)-3-((1-propyl-1H-1,2,3-triazol-4-yl)methoxy)-N-(pyridin-3-yl)propanamide, Formic acid salt]",0.1 to 1,
"CCCn1cc(CO[C@H](c2ccc(C)c(CN3C[C@@H](C)Cc4ccccc4S3(=O)=O)c2)C(C)(C)C(=O)Nc2cccnc2)nn1 [Example 51, (R)-2,2-Dimethyl-3-(4-methyl-3-(((S)-4-methyl-1,1-dioxido-4,5-dihydrobenzo[f][1,2]thiazepin-2(3H)-yl(methyl)phenyl)-3-((1-propyl-1H-1,2,3-triazol-4-yl)methoxy)-N-(pyridin-3-yl)propanamide, Formic acid salt]",,0.1 to 1
"CCCn1cc(CO[C@H](c2ccc(C)c(CN3C[C@@H](C)Cc4ccc(C(F)(F)F)cc4S3(=O)=O)c2)C(C)(C)C(=O)Nc2cccnc2)nn1 [Example 52, (R)-2,2-Dimethyl-3-(4-methyl-3-(((S)-4-methyl-1,1-dioxido-8-(trifluoromethyl)-4,5-dihydrobenzo[f][1,2]thiazepin-2(3H)-yl)methyl)phenyl)-3-((1-propyl-1H-1,2,3-triazol-4-yl)methoxy)-N-(pyridin-3-yl)propanamide]",0.001 to 0.01,
"CCCn1cc(CO[C@H](c2ccc(C)c(CN3CC(C)(C)Oc4ccccc4S3(=O)=O)c2)C(C)(C)C(=O)Nc2cccnc2)nn1 [Example 53, (R)-3-(3-((4,4-Dimethyl-1,1-dioxido-3,4-dihydro-2H-benzo[b][1,4,5]oxathiazepin-2-yl)methyl)-4-methylphenyl)-2,2-dimethyl-3-((1-propyl-1H-1,2,3-triazol-4-yl)methoxy)-N-(pyridin-3-yl)propanamide]",0.1 to 1,
CCCn1cc(CO[C@H](c2ccc(C)c(CN3C[C@@H](C)Cc4ccncc4S3(=O)=O)c2)C(C)(C)C(=O)Nc2cccnc2)nn1 [Example 54],,0.01 to 0.1
"CCCn1cc(CO[C@H](c2ccc(C)c(CN3C[C@@H](CC)Oc4ccccc4S3(=O)=O)c2)C(C)(C)C(=O)Nc2cccnc2)nn1 [Example 55, (R)-3-(3-(((R)-4-Ethyl-1,1-dioxido-3,4-dihydro-2H-benzo[b][1,4,5]oxathiazepin-2-yl)methyl)-4-methylphenyl)-2,2-dimethyl-3-((1-propyl-1H-1,2,3-triazol-4-yl)methoxy)-N-(pyridin-3-yl)propanamide]",0.1 to 1,
"CCCn1cc(CO[C@H](c2ccc(C)c(CN3C[C@@H](C)Cc4ccc(F)cc4S3(=O)=O)c2)C(C)(C)C(=O)Nc2cccnc2)nn1 [Example 56, (R)-3-(3-(((S)-8-Fluoro-4-methyl-1,1-dioxido-4,5-dihydrobenzo[f][1,2]thiazepin-2(3H)-yl)methyl)-4-methylphenyl)-2,2-dimethyl-3-((1-propyl-1H-1,2,3-triazol-4-yl)methoxy)-N-(pyridin-3-yl)propanamide]",0.1 to 1,
"CC[C@H]1Cc2ccccc2S(=O)(=O)N(Cc2cc([C@H](OCc3cn(CC)nn3)C(C)(C)C(=O)Nc3cccnc3)ccc2C)C1 [Example 57, (S)-3-(3-(((S)-4-Ethyl-1,1-dioxido-4,5-dihydrobenzo[f][1,2]thiazepin-2(3H)-yl)methyl)-4-methylphenyl)-3-((1-ethyl-1H-1,2,3-triazol-4-yl)methoxy)-2,2-dimethyl-N-(pyridin-3-yl)propanamide]",0.01 to 0.1,
"CCn1cc(CO[C@@H](c2ccc(C)c(CN3C[C@@H](C)Cc4ncccc4S3(=O)=O)c2)C(C)(C)C(=O)Nc2cccnc2)nn1 [Example 58, (S)-3-((1-Ethyl-1H-1,2,3-triazol-4-yl)methoxy)-2,2-dimethyl-3-(4-methyl-3-(((S)-4-methyl-1,1-dioxido-4,5-dihydropyrido[2,3-f][1,2]thiazepin-2(3H)-yl)methyl)phenyl)-N-(pyridin-3-yl)propanamide]",0.1 to 1,
"CCn1nnc2c(C)c([C@H](c3ccc(C)c(CN4C[C@H](C)Cc5ccccc5S4(=O)=O)c3)C(C)(C)C(=O)Nc3cccnc3)cc(OC)c21 [Example 59, (S)-3-(1-Ethyl-7-methoxy-4-methyl-1H-benzo[d][1,2,3]triazol-5-yl)-2,2-dimethyl-3-(4-methyl-3-(((R)-4-methyl-1,1-dioxido-4,5-dihydrobenzo[f][1,2]thiazepin-2(3H)-yl)methyl)phenyl)-N-(pyridin-3-yl)propanamide]",0.1 to 1,
"CC[C@@H]1CN(Cc2cc([C@H](c3cc(OC)c4c(nnn4CC)c3C)C(C)(C)C(=O)Nc3cccnc3)ccc2C)S(=O)(=O)c2ccccc2O1 [Example 60, (R)-3-(3-(((R)-4-Ethyl-1,1-dioxido-3,4-dihydro-2H-benzo[b][1,4,5]oxathiazepin-2-yl)methyl)-4-methylphenyl)-3-(1-ethyl-7-methoxy-4-methyl-1H-benzo[d][1,2,3]triazol-5-yl)-2,2-dimethyl-N-(pyridin-3-yl)propanamide]",0.1 to 1,
COc1cc(C(CC(=O)Nc2cccnc2)c2ccc(C)c(CN3C[C@@H](C)Cc4ccc(C(F)(F)F)cc4S3(=O)=O)c2)cc2nnn(C)c12 (stereo partly shown) [Example 61],,0.01 to 0.1
"COc1cc([C@@H](CC(=O)Nc2cccnc2)c2ccc(C)c(CN3C[C@@H](C)Oc4ccccc4S3(=O)=O)c2)cc2nnn(C)c12 [Example 62, (S)-3-(7-Methoxy-1-methyl-1H-benzo[d][1,2,3]triazol-5-yl)-3-(4-methyl-3-(((R)-4-methyl-1,1-dioxido-3,4-dihydro-2H-benzo[b][1,4,5]oxathiazepin-2-yl)methyl)phenyl)-N-(pyridin-3-yl)propanamide]",0.01 to 0.1,
"CCn1nnc2c(C)c([C@H](c3ccc(C)c(CN4C[C@@H](C)Cc5ccc(C(F)(F)F)cc5S4(=O)=O)c3)C(C)(C)C(=O)Nc3cccnc3)cc(OC)c21 [Example 63, (S)-3-(1-Ethyl-7-methoxy-4-methyl-1H-benzo[d][1,2,3]triazol-5-yl)-2,2-dimethyl-3-(4-methyl-3-(((S)-4-methyl-1,1-dioxido-8-(trifluoromethyl)-4,5-dihydrobenzo[f][1,2]thiazepin-2(3H)-yl)methyl)phenyl)-N-(pyridin-3-yl)propanamide]",0.001 to 0.01,
"CC[C@@H]1CN(Cc2cc([C@@H](c3cc(OC)c4c(nnn4CC)c3C)C(C)(C)C(=O)Nc3cccnc3)ccc2C)S(=O)(=O)c2ccccc2O1 [Example 64, (S)-3-(3-(((R)-4-Ethyl-1,1-dioxido-3,4-dihydro-2H-benzo[b][1,4,5]oxathiazepin-2-yl)methyl)-4-methylphenyl)-3-(1-ethyl-7-methoxy-4-methyl-1H-benzo[d][1,2,3]triazol-5-yl)-2,2-dimethyl-N-(pyridin-3-yl)propanamide]",0.001 to 0.01,
"CC[C@@H]1CN(Cc2cc([C@H](CC(=O)Nc3cccnc3)c3cc(OC)c4c(nnn4CC)c3C)ccc2C)S(=O)(=O)c2cccnc2O1 [Example 65, (S)-3-(3-(((R)-4-Ethyl-1,1-dioxido-3,4-dihydro-2H-pyrido[2,3-b][1,4,5]oxathiazepin-2-yl)methyl)-4-methylphenyl)-3-(1-ethyl-7-methoxy-4-methyl-1H-benzo[d][1,2,3]triazol-5-yl)-N-(pyridin-3-yl)propanamide]",0.01 to 0.1,
"CCn1nnc2c(C)c([C@H](c3ccc(C)c(CN4C[C@@H](C)Cc5cc(C(F)(F)F)ccc5S4(=O)=O)c3)C(C)(C)C(=O)Nc3cccnc3)cc(OC)c21 [Example 66, (S)-3-(1-Ethyl-7-methoxy-4-methyl-1H-benzo[d][1,2,3]triazol-5-yl)-2,2-dimethyl-3-(4-methyl-3-(((S)-4-methyl-1,1-dioxido-7-(trifluoromethyl)-4,5-dihydrobenzo[f][1,2]thiazepin-2(3H)-yl)methyl)phenyl)-N-(pyridin-3-yl)propanamide]",0.01 to 0.1,
"CC[C@@H]1CN(Cc2cc([C@H](CC(=O)Nc3nn[nH]n3)c3ccc4c(nnn4CC)c3C)ccc2C)S(=O)(=O)c2cccnc2O1 [Example 67, (S)-3-(3-(((R)-4-Ethyl-1,1-dioxido-3,4-dihydro-2H-pyrido[2,3-b][1,4,5]oxathiazepin-2-yl)methyl)-4-methylphenyl)-3-(1-ethyl-4-methyl-1H-benzo[d][1,2,3]triazol-5-yl)-N-(2H-tetrazol-5-yl)propanamide]",0.1 to 1,
"CC[C@@H]1CN(Cc2cc([C@@H](c3ccc4c(nnn4CC)c3C)C(C)(C)C(N)=O)ccc2C)S(=O)(=O)c2cccnc2O1 [Example 68, (S)-3-(3-(((R)-4-Ethyl-1,1-dioxido-3,4-dihydro-2H-pyrido[2,3-b][1,4,5]oxathiazepin-2-yl)methyl)-4-methylphenyl)-3-(1-ethyl-4-methyl-1H-benzo[d][1,2,3]triazol-5-yl)-2,2-dimethylpropanamide]",0.001 to 0.01,
"Cc1ccc(C(CC(=O)Nc2cccnc2)c2ccc(C#N)cc2C)cc1CN1CC(C)Cc2ccc(C(F)(F)F)cc2S1(=O)=O (stereo not shown) [Example 70, 3-(4-Cyano-2-methylphenyl)-3-(4-methyl-3-((4-methyl-1,1-dioxido-8-(trifluoromethyl)-4,5-dihydrobenzo[f][1,2]thiazepin-2(3H)-yl)methyl)phenyl)-N-(pyridin-3-yl)propanamide]",0.1 to 1,
"CC[C@H]1Cc2ccccc2S(=O)(=O)N(Cc2cc([C@@H](c3ccc4c(nnn4CC)c3C)C(C)(C)C(=O)Nc3ncns3)ccc2C)C1 [Example 71, (S)-3-(3-(((S)-4-Ethyl-1,1-dioxido-4,5-dihydrobenzo[f][1,2]thiazepin-2(3H)-yl)methyl)-4-methylphenyl)-3-(1-ethyl-4-methyl-1H-benzo[d][1,2,3]triazol-5-yl)-2,2-dimethyl-N-(1,2,4-thiadiazol-5-yl)propanamide]",0.001 to 0.01,
